Laboratory results reported in patent US7790742B2, “Substituted 4-phenyltetrahydroisoquinolines, pharmaceutical compositions thereof, methods for their preparation and therapeutic use” (Sanofi-Aventis Deutschland GmbH, priority 2004, dated 2010).

First: CN1Cc2c(Cl)cc(Cl)cc2C(c2ccc(Nc3c(N(C)C4CCCCC4)c(=O)c3=O)cc2)C1 (stereo not shown) [Example 17, 6,8-dichloro-2-methyl-4-[4N-(2-N-cyclohexyl-N-methylamino-3,4-dioxocyclobuten-1-yl)amino]phenyl-1,2,3,4-tetrahydroisoquinoline]
Second: CN1Cc2c(Cl)cc(Cl)cc2C(c2ccc(Nc3c(NC4CCCC4)c(=O)c3=O)cc2)C1 (stereo not shown) [Example 54]
The melting point of the first is lower: 260 to 265 °C for the first, 300 to 304 °C for the second.

First: CN1Cc2c(Cl)cc(Cl)cc2[C@H](c2ccc(Nc3c(N(C)C)c(=O)c3=O)cc2)C1 [Example 20, 6,8-dichloro-2-methyl-4(S)-[4N-(2-dimethylamino-3,4-dioxocyclobuten-1-yl)amino]phenyl-1,2,3,4-tetrahydroisoquinoline]
Second: CNc1c(Nc2ccc(C3CN(C)Cc4c(Cl)cc(Cl)cc43)cc2)c(=O)c1=O (stereo not shown) [Example 53, 6,8-dichloro-2-methyl-4-[4N-(2N-methylamino-3,4-dioxocyclobuten-1-yl)amino]phenyl-1,2,3,4-tetrahydroisoquinoline]
The melting point of the first is lower: 240 to 247 °C for the first, 328 to 334 °C for the second.

First: CN1Cc2c(Cl)cc(Cl)cc2[C@H](c2ccccc2Nc2c(N(C)C)c(=O)c2=O)C1 [Example 21, 6,8-dichloro-2-methyl-4(R)-[2N-(2-dimethylamino-3,4-dioxocyclobuten-1-yl)amino]phenyl-1,2,3,4-tetrahydroisoquinoline]
Second: CNc1c(Nc2ccccc2C2CN(C)Cc3c(Cl)cc(Cl)cc32)c(=O)c1=O (stereo not shown) [Example 44, 6,8-dichloro-2-methyl-4-[2N-(2-N-methylamino-3,4-dioxocyclobuten-1-yl)amino]phenyl-1,2,3,4-tetrahydroisoquinoline]
The melting point of the first is higher: 236 to 240 °C for the first, 224 to 230 °C for the second.

First: CN1Cc2c(Cl)cc(Cl)cc2[C@H](c2ccc(Nc3c(NC4CC4)c(=O)c3=O)cc2)C1 [Example 35]
Second: CCNc1c(Nc2ccc(C3CN(C)Cc4c(Cl)cc(Cl)cc43)cc2)c(=O)c1=O (stereo not shown) [Example 51, 6,8-dichloro-2-methyl-4-[4N-(2-N-ethylamino-3,4-dioxocyclobuten-1-yl)amino]phenyl-1,2,3,4-tetrahydroisoquinoline]
The melting point of the first is lower: 280 to 285 °C for the first, 292 to 297 °C for the second.

Compared with `CN1Cc2c(Cl)cc(Cl)cc2C(c2ccc(Nc3c(Nc4ccccc4)c(=O)c3=O)cc2)C1` (stereo not shown) [Example 43, 6,8-dichloro-2-methyl-4-[4N-(2-N-phenylamino-3,4-dioxocyclobuten-1-yl)amino]phenyl-1,2,3,4-tetrahydroisoquinoline], `CN1Cc2c(Cl)cc(Cl)cc2C(c2ccc(Nc3c(NCc4ccco4)c(=O)c3=O)cc2)C1` (stereo not shown) [Example 56, 6,8-dichloro-2-methyl-4-[4N-(2N-(2-furylmethyl)amino-3,4-dioxocyclobuten-1-yl)amino]phenyl-1,2,3,4-tetrahydroisoquinoline] is lower in melting point: 288 to 294 °C for the first, 264 to 268 °C for the second.

First: CCCCCCNc1c(Nc2ccccc2C2CN(C)Cc3c(Cl)cc(Cl)cc32)c(=O)c1=O (stereo not shown) [Example 45, 6,8-dichloro-2-methyl-4-[2N-(2-N-(1-hexylamino)-3,4-dioxocyclobuten-1-yl)amino]phenyl-1,2,3,4-tetrahydroisoquinoline]
Second: CCNc1c(Nc2ccccc2C2CN(C)Cc3c(Cl)cc(Cl)cc32)c(=O)c1=O (stereo not shown) [Example 49, 6,8-dichloro-2-methyl-4-[2N-(2-N-ethylamino-3,4-dioxocyclobuten-1-yl)amino]phenyl-1,2,3,4-tetrahydroisoquinoline]
The melting point of the first is lower: 157 to 160 °C for the first, 205 to 208 °C for the second.

First: CC(C)Nc1c(Nc2ccccc2C2CN(C)Cc3c(Cl)cc(Cl)cc32)c(=O)c1=O (stereo not shown) [Example 46, 6,8-dichloro-2-methyl-4-[2N-(2-N-isopropylamino-3,4-dioxocyclobuten-1-yl)amino]phenyl-1,2,3,4-tetrahydroisoquinoline]
Second: CN(C)CCNc1c(Nc2ccccc2C2CN(C)Cc3c(Cl)cc(Cl)cc32)c(=O)c1=O (stereo not shown) [Example 50, 6,8-dichloro-2-methyl-4-[2N-(2-N-dimethylaminoethylamino-3,4-dioxocyclobuten-1-yl)amino]phenyl-1,2,3,4-tetrahydroisoquinoline]
The melting point of the first is higher: 238 to 241 °C for the first, 208 to 211 °C for the second.

First: CN1Cc2c(Cl)cc(Cl)cc2C(c2ccccc2Nc2c(NC3CCCC3)c(=O)c2=O)C1 (stereo not shown) [Example 47, 6,8-dichloro-2-methyl-4-[2N-(2-N-cyclopentylamino-3,4-dioxocyclobuten-1-yl)amino]phenyl-1,2,3,4-tetrahydroisoquinoline]
Second: CN1Cc2c(Cl)cc(Cl)cc2C(c2cccc(Nc3c(NC4CCCC4)c(=O)c3=O)c2)C1 (stereo not shown) [Example 63, 6,8-dichloro-2-methyl-4-[3N-(2-cyclopentylamino-3,4-dioxocyclobuten-1-yl)amino]phenyl-1,2,3,4-tetrahydroisoquinoline]
The melting point of the first is higher: 278 to 281 °C for the first, 248 to 252 °C for the second.

First: CN1Cc2c(Cl)cc(Cl)cc2C(c2ccccc2Nc2c(NCc3ccco3)c(=O)c2=O)C1 (stereo not shown) [Example 48, 6,8-dichloro-2-methyl-4-[2N-(2N-(2-furylmethyl)amino-3,4-dioxocyclobuten-1-yl)amino]phenyl-1,2,3,4-tetrahydroisoquinoline]
Second: CN1Cc2c(Cl)cc(Cl)cc2C(c2ccccc2Nc2c(NCc3cccnc3)c(=O)c2=O)C1 (stereo not shown) [Example 52, 6,8-dichloro-2-methyl-4-[2N-(2N-(3-picolylmethyl)amino-3,4-dioxocyclobuten-1-yl)amino]phenyl-1,2,3,4-tetrahydroisoquinoline]
The melting point of the first is higher: 279 to 283 °C for the first, 244 to 246 °C for the second.

First: CC(C)Nc1c(Nc2ccc(C3CN(C)Cc4c(Cl)cc(Cl)cc43)cc2)c(=O)c1=O (stereo not shown) [Example 55, 6,8-dichloro-2-methyl-4-[4N-(2N-isopropylamino-3,4-dioxocyclobuten-1-yl)amino]phenyl-1,2,3,4-tetrahydroisoquinoline]
Second: CC(C)Nc1c(Nc2cccc(C3CN(C)Cc4c(Cl)cc(Cl)cc43)c2)c(=O)c1=O (stereo not shown) [Example 64]
The melting point of the first is higher: 268 to 272 °C for the first, 240 to 244 °C for the second.

Compared with `CN(C)CCNc1c(Nc2ccc(C3CN(C)Cc4c(Cl)cc(Cl)cc43)cc2)c(=O)c1=O` (stereo not shown) [Example 57], `CN(C)CCNc1c(Nc2cccc(C3CN(C)Cc4c(Cl)cc(Cl)cc43)c2)c(=O)c1=O` (stereo not shown) [Example 65] is lower in melting point: 262 to 266 °C for the first, 198 to 200 °C for the second.

Compared with `CCCCCCNc1c(Nc2ccc(C3CN(C)Cc4c(Cl)cc(Cl)cc43)cc2)c(=O)c1=O` (stereo not shown) [Example 58], `CN1Cc2c(Cl)cc(Cl)cc2C(c2ccc(Nc3c(NCc4cccnc4)c(=O)c3=O)cc2)C1` (stereo not shown) [Example 59] is higher in melting point: 234 to 238 °C for the first, 288 to 290 °C for the second.

With `CNc1c(Nc2cccc(C3CN(C)Cc4c(Cl)cc(Cl)cc43)c2)c(=O)c1=O` (stereo not shown) [Example 60] the melting point was 295 to 298 °C.
